Measurements taken from PMC4985813, “Binding site elucidation and structure guided design of macrocyclic IL-17A antagonists” (Scientific Reports, 2016).
pIC50, pKd: −log10 of the molar value. Values joined by “and” are separate entries in the source; they are usually repeats but may differ in a detail not shown here. Identical values can stand only once. “Also recorded” adds a separate entry of the source. Like-named read-outs stand apart in the source and are kept apart here. Each block holds one molecule with its values, some of them ahead of it.

Columns and labels:
[1] = test system: IL-17A-stimulated human keratinocytes; experiment: Primary human keratinocytes cell assay, IL-8 production stimulated by IL-17A and TNF-α; type: cell-based; conditions: for pIC50: Homo sapiens, Keratinocyte
Method: (§1) Primary human keratinocytes were cultured in Epilife medium with EDGS (Life Technology, Cascade Biologics) following product instructions. 5 days after establishing the culture from frozen vials, cells were plated at 10,000/well (80 μL) in culture media in 384-well plates. 4 h after plating, 10 μL of 10× compound stocks were added. Final DMSO concentration was 1%. Immediately after compound addition, 10 μL of a mixture of recombinant human IL-17A (R&D System, Minneapolis, MN) (5 ng/mL final) and TNF-α (Sigma-Aldrich, St Louis, MO) (10 ng/mL final), or TNF-α alone (10 ng/mL) were added to the cells. Cell assay plates were incubated for 48 h at 37 °C in a tissue culture incubator. Culture supernatants were harvested for analysis of IL-8 production using kit K211ANB-2 (Meso Scale Discovery, Rockville, MD).

IL-17F homodimer = target: T1, IL-17F homodimer (Homo sapiens, UniProt Q96PD4); experiment: SPR selectivity binding, immobilized IL-17F; conditions: for binding to IL-17F (SPR): concentrations up to 13.3 μM
T1 construct: purchased R&D Systems, Minneapolis, MN
T1 sequence (Q96PD4 31-163): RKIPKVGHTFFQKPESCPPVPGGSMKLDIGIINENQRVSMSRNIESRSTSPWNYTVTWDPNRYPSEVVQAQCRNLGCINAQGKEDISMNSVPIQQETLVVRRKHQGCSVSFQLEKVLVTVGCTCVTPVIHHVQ
Method: (§2) The IL-17 SPR binding assay was run on a Biacore 3000 SPR instrument (GE Healthcare). Biotinylated Bap-tagged human IL-17A[23], was captured on a Biacore Streptavidin chip to achieve a protein density of 2500–3500 RUs on the surface. The SPR running buffer was 10 mM HEPES, pH 7.4, 150 mM NaCl, 0.01% P20 with 3% DMSO. Compound samples were injected at a flow rate of 50 μL/min for 180 s association and followed by running buffer for at least 600 s to detect dissociation. Compound concentrations were varied across a 2–3 fold dilution series. Each concentration was tested at least in duplicate. When compounds were tested in the presence of HAP, the running buffer contained 50 nM of HAP and all samples were prepared in the running buffer. Multiple blank injections were run before and after each compound series for references. The data were processed and analyzed with Scrubber 2.0 (BioLogical Software) and Biaeval software (GE Healthcare) to calculate the binding constants along with on- and off-rates.
(§3) Biotinylated BAP-tagged IL-17RA ECD[17] and chemically biotinylated IL-17F (R&D Systems, Minneapolis, MN) were separately immobilized on Biacore Streptavidin chips to permit selectivity testing of compounds. The binding experiments were carried out as described above.

IL-17RA = target: T2, IL-17RA (Homo sapiens, UniProt Q96F46); experiment: SPR selectivity binding, immobilized IL-17RA ECD
T2 construct: Biotinylated BAP-tagged IL-17RA ECD[17]
T2 sequence (Q96F46 33-320 limits assumed): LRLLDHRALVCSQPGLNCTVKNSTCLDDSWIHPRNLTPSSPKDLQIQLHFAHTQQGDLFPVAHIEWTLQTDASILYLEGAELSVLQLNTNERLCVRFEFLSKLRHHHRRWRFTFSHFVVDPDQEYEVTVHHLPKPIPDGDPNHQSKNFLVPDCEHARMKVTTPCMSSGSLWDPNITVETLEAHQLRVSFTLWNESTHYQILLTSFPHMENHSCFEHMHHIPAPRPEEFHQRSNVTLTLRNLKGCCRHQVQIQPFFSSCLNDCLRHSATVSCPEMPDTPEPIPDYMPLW
Method: as §2, §3

human IL-17A = human IL-17A (Homo sapiens, UniProt Q16552); experiment: SPR binding assay, immobilized IL-17A
human IL-17A, sequence (Q16552 24-155): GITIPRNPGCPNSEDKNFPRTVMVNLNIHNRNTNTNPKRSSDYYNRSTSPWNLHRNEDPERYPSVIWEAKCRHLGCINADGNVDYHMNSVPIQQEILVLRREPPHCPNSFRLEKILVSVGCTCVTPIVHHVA
Method: as §2, with “When compounds were tested in the presence of HAP, the running buffer contained 50 nM of HAP and all samples were prepared in the running buffer.” left out

[2] = target: T3, IL-17A/IL-17RA interaction (Homo sapiens, UniProt Q16552); experiment: FRET assay of IL-17A/IL-17RA interaction; type: biochemical
T3 construct: purchased R&D Systems (IL-17RA-Fc only)
T3 sequence (Q16552 24-155): as above
Method: Maximal FRET was observed when IL-17A was bound to IL-17RA and diminished FRET was observed when IL-17A was separated from IL-17RA. […] Compounds were tested using a half-log dilution series of 11 concentrations. The IL-17A was incubated with the Europium-Streptavidin to 1.5X final assay concentration for 1 h at room temperature. Compounds were prepared at 50X final concentration in 100% DMSO and 300 nL were added to a 384-well white assay plate (Greiner). 10 μL of the Europium labeled IL-17A was added to the compounds and incubated at room temperature for 1 h. […] The plates were covered and incubated at room temperature for 3 h. The FRET signal of the IL-17A/IL-17RA interaction was measured using an EnVision Multilabel plate reader (PerkinElmer). […] A four-parameter logistic nonlinear regression model using the percent inhibition at each concentration was used to calculate an IC50 for each compound.

[3] = test system: keratinocytes stimulated by TNF-α alone; experiment: Primary human keratinocytes cell assay, baseline IL-8 production stimulated by TNF-α alone; type: cell-based; conditions: Keratinocyte, TNF-α 10 ng/mL alone
Method: as §1

[4] = target: T4, full-length recombinant IL-17A (Homo sapiens, UniProt Q16552); experiment: Covalent labeling of IL-17A with sulfonyl fluoride probe (pull-down, protein mass analysis, peptide mapping); type: biochemical
T4 construct: made in house
T4 sequence (Q16552 24-155): as above
Method: Human recombinant IL-17A expressed in E. coli (5 μM) was incubated with and without compound 4 (50 μM) for 20 h at 37 °C in Dulbecco’s phosphate-buffered saline solution. To analyze cytokine homodimer, 10 μL of each sample was subjected to LC-MS using an Acquity class H UPLC (Waters) interfaced to a Xevo G2–S Q-Tof mass spectrometer (Waters). Chromatography was performed on a 2.1 × 100 mm Acquity BEH 300 Å C4 column (1.7 μm silica) (Waters) at 40 °C using the following gradient: 5% B/1 min, 5–85% B/10 min at 0.4 mL/min. Solvents: A, 0.05% formic acid in water; B, 0.05% formic acid in acetonitrile. […]
100 μL of each reaction sample was treated with three volumes of acetone at −20 °C for 2 h, after which the mixture was centrifuged at 14,000 × g for 10 min. […] Each digest was next treated with 4.5 mM DTT for 15 min at 37 °C, and 8 μL of each digest was analyzed on an Agilent Model 1100 HPLC system interfaced with a LTQ Orbitrap XL mass spectrometer (Thermo). […]
0.5 μM full length IL-17A (R&D Systems) was pre-incubated with DMSO or 50 μM a control compound in PBS at room temperature for 30 min, after which 5 μM sulfonyl fluoride probe compound 4 was added to the protein mixture (final sample volume 50 μl) and incubated for 1 h. […] Eluates were separated on a 12% NuPAGE Bis-Tris gel, transferred to a PVDF membrane, and then analyzed by immunoblot (anti-IL17A antibody from R&D Systems).

Compound: CN(C)C(=O)CC1(CC(=O)NCCc2ccc(NC(=O)[C@H](Cc3ccccc3F)NC(=O)c3ccnn3C)cc2)CCCC1 [Compound 1]
modulation of IL-8 production in IL-17A-stimulated human keratinocytes ([1]; in the presence of TNF-α): insufficient to modulate | binding to IL-17F homodimer (SPR) (IL-17F homodimer; concentrations up to 40 μM): no measurable binding; also recorded: did not show any measurable binding | binding to IL-17RA (SPR) (IL-17RA; concentrations up to 40 μM): no measurable binding; also recorded: did not show measurable binding

pKd (human IL-17A; read-out: IL-17A SPR KD): 6.70 | pKd (human IL-17A; read-out: SPR KD): > 6.70 | pIC50 [2]: > 7.46 and 7.47 | pIC50 ([1]; IL-17A 5 ng/mL and TNF-α 10 ng/mL, 48 h, read-out: Keratinocyte IC50 (IL-8)): 6.27 | pIC50 ([1]; read-out: IC50, IL-17A-stimulated production of IL-8 in keratinocytes): > 6.27 | binding to IL-17F (SPR) (IL-17F homodimer): did not show measurable binding | binding to IL-17RA (SPR) (IL-17RA; concentrations up to 13.3 μM): did not show measurable binding | pIC50 [3]: < 4.52
Compound: CNC(=O)[C@H]1Cc2ccc(cc2)NC(=O)[C@@H](NC(=O)c2ccnn2C)Cc2cc(ccc2Cl)Oc2ccc(cc2)C2(CCCC2)CC(=O)N1 [Compound 2]

Compound: CNC(=O)[C@H]1Cc2ccc(cc2)NC(=O)C(NC(=O)c2ccnn2C)Cc2cc(ccc2Cl)-c2cccc(c2)CCC(=O)N1 (some centres unmarked) [Compound 3]
binding to IL-17F (SPR) (IL-17F homodimer): no measurable binding; also recorded: did not show measurable binding | binding to IL-17RA (SPR) (IL-17RA; concentrations up to 13.3 μM): no measurable binding; also recorded: did not show measurable binding | pIC50 [3]: < 4.52

Compound: C#CCNC(=O)[C@@H](Cc1ccc(NC(=O)[C@H](Cc2ccccc2F)NC(=O)c2ccnn2C)cc1)NC(=O)CC1(CC(=O)Nc2cccc(S(=O)(=O)F)c2)CCCC1 [Compound 4]
pIC50 [2]: 6.70 | covalent labeling of IL-17A ([4]; in the absence of HAP): covalently labeled | principal site of modification of IL-17A ([4]; peptide mapping): Tyr85
